According to patent publication US10226474B2, “Methods and compositions for treatment of non-alcoholic steatohepatitis” (Temple University—Of The Commonwealth System of Higher …, priority 2017, dated 2019):
Where two headings read alike, the source gives them in different places.

What was measured:
NASH patients [1] = conditions: oral dose of 150 mg, one year, cited from earlier work
mouse diabetic model = conditions: U.S. Pat. No. 8,431,555; cited from earlier work
[2] = system: DIAMOND™ mouse model of NASH; assay: Efficacy of fluasterone in the DIAMOND mouse model of NASH (Western Diet Sugar Water); type: in vivo; conditions: for mice progressed to measurable fibrosis by NASH CRN score: 24 week WDSW group 5/10
Experimental: DIAMOND™ (Diet Induced Animal Model of Non-alcoholic fatty liver Disease) mouse model is a mouse model of NASH. This mouse model was used to assess the effect of fluasterone. The drug formulation (subcutaneous injectable formulation) contained fluasterone as an active pharmaceutical ingredient in a vehicle. The vehicle contained RO (reverse osmosis) water mixed with sterile saline solution and 5% Tween-80. The drug formulation was prepared as follows: micronized powder of fluasterone (submicron range particles of fluasterone) was suspended in the vehicle and vortexed to evenly suspend. Two doses of fluasterone were used and compared to vehicle controls and positive and negative natural history controls to determine the impact on weight gain, fatty liver, steatohepatitis, and the progression to fibrosis. The two different doses of fluasterone used were (i) a low dose (LD) fluasterone (5 mg fluasterone/kg body weight) for 8 weeks and (ii) a high dose (HD) fluasterone (20 mg fluasterone/kg body weight) for 8 weeks. Vehicle Control was sterile saline with 5% Tween-80. The other details are as follows: (1) Animal Species: DIAMOND™ Mice (Male C57BL/6J(B6)-129s1/SvImJ(S129)). (2) Positive Control and Treatment Groups' food and drinking water: (a) Food—Western Diet ENVIGO Harlan/Teklad 42% Adjusted Calories from Fat (TD. 88137), and (b) RO Water—Sugar Water—D-fructose Alfa Aesar #A17718 and D-glucose Water—Fisher Scientific #D19-212; Recipe=231 g Fructose+189 g Glucose+750 ml RO (reverse osmosis) water Diluted into 9 L RO Water. This diet is referred to herein as Western Diet Sugar Water (WDSW). (3) Negative Control Group's food and drinking water: (a) Normal Mouse Chow Diet—ENVIGO Harlan/Teklad Normal Rodent Chow (TD 7012 Teklad LM-485), and (b) RO water. This diet is referred to herein interchangeably as Normal Diet Normal Water (NDNW) and Normal Chow Normal Water (NCNW).
Eight-two (82) DIAMOND™ mice were put on the special diet WDSW (high fat diet (Harlan/Teklad 42% fat) and sweetened water (D-Fructose and D-Glucose)) at time point 0 (t=0) (at eight weeks of age). Mice were weighed weekly. Of these, 10 mice were injected subcutaneously with fluasterone at concentration 5 mg/kg and 10 mice were injected subcutaneously with fluasterone at concentration 20 mg/kg, and 5 mice in a staggered group were injected with vehicle starting at 16 weeks on diet (t=16) until 24 weeks (t=24), as described in “Subcutaneous Injection.” For baseline controls, 8 male DIAMOND™ mice were placed on the WDSW at eight weeks of age and given no treatment; these were the positive natural history controls. A second group of 8 male DIAMOND™ mice were continued on the NCNW/NDNW at eight (8) weeks and these were the negative natural history control group. The mice were weighed weekly. At 16, 20, and 24 weeks on diet, fasting insulin was measured in serum from tail vein nick. HOMA-IR scores were calculated. 8 mice on WDSW and 8 mice NDNW were sacrificed at 16 weeks (t=16) on diet as baseline positive and negative controls. 8 mice on WDSW and 8 mice NDNW were sacrificed at 24 weeks (t=24). Carbon dioxide was used as an anesthetic and a cardiac puncture was performed for exsanguination. Cervical dislocation was performed as a secondary means of euthanasia.
As discussed above, the drug formulation used in this experiment contained fluasterone as an active pharmaceutical ingredient in a vehicle. The vehicle contained RO water mixed with sterile saline solution and 5% Tween-80.
Body Weights: Mice were weighed weekly and the weights determined the amount of test compound administered.
Subcutaneous Injection: The mice received a subcutaneous injection 1× daily. In summary, mice were grasped at the scruff of the neck and a suitable place was selected for the injection. The injection site was moved daily to ensure limited distress to the animal. […]

[3] = system: TPA-stimulated epidermal hyperplasia in mouse skin; conditions: cited from earlier work
NASH patients [4] = conditions: obeticholic acid treatment; cited from earlier work
[5] = system: Nonalcoholic Steatohepatitis patients; conditions: PIVENS histologic response criteria; 0.025 considered statistically significant; cited from earlier work

## CSc1ccc(C(=O)/C=C/c2cc(C)c(OC(C)(C)C(=O)O)c(C)c2)cc1 [GFT 505]
NASH patients [1]; all patients
  improvement in histologically-assessed NASH vs. placebo: failed to produce a statistically significant improvement
NASH patients [1]; patients with the mildest form of NASH (NAS<3) excluded
  improvement in histologically-assessed NASH vs. placebo: statistically significant improvement vs. placebo

## C[C@]12CCCCC1=CC[C@@H]1[C@@H]2CC[C@]2(C)C(=O)[C@H](F)C[C@@H]12 [fluasterone, 16α-fluoro-5-androsten-17-one]
Mouse diabetic model
  hyperglycemia: effective in reducing hyperglycemia
[2]; both low dose 5 mg/kg (P 0.01) and high dose 20 mg/kg (P 0.0005) vs 24 weeks WDSW
  fasting blood ketones at necropsy: significantly lower
[2]; both low dose 5 mg/kg and high dose 20 mg/kg s.c., 8 weeks, vs 24 weeks WDSW, P 0.003 each (FIG. 3)
  fasting blood glucose: significantly improved
[2]; both treatment groups vs 24 week positive controls, high dose P<0.039, low dose P<0.008 (FIG. 17)
  SAF Activity score: improved the SAF scores
[2]; both treatment groups vs 24 week positive controls, high dose P<0.05, low dose P<0.001 (FIG. 18)
  NAS score: improved the NAS score
[2]; both treatment groups vs 24 weeks WDSW, high dose P<0.01, low dose P<0.032 (FIG. 14)
  lobular inflammation: significantly reduced inflammation
[2]; fluasterone-treated mice vs WDSW
  serum triglycerides: no significant difference
[2]; fluasterone-treated mice vs WDSW positive controls, low dose P=0.0504
  total serum cholesterol: lower total serum cholesterol
[2]; high dose 20 mg/kg s.c. 1x daily for 8 weeks (weeks 16-24 on WDSW), P=0.054
  liver weight vs WDSW positive control: smaller livers compared to the WDSW 24 wk control group
[2]; high dose 20 mg/kg vs 24 week positive controls, P=0.15
  fibrosis (NASH CRN): not statistically less fibrotic although there was a trend
[2]; high dose 20 mg/kg vs WDSW control, P=0.058
  alkaline phosphatase (ALP): strong trend to improvement
[2]; high dose 20 mg/kg, 24 week WDSW control 10/10, baseline (16 weeks) 5/10
  mice that progressed to NASH: 5/10
[2]; high dose 20 mg/kg
  mice progressed to measurable fibrosis by NASH CRN score: 2/10
[2]; high dose 20 mg/kg, P value of 0.052
  perisinusoidal fibrosis: almost statistically significant
[2]; low and high dose groups vs WDSW positive control, baseline (16 weeks) and end of study (24 weeks)
  fasting insulin (ELISA): not statistically significant between drug treated groups and WDSW positive control
[2]; low and high dose groups vs positive WDSW control, data not shown
  HOMA IR: comparable between the positive WDSW control and the drug treated groups
[2]; low and high dose groups vs positive controls
  steatosis grade: neither treatment group had improved steatosis grade
[2]; low dose 5 mg/kg and high dose 20 mg/kg s.c., 8 weeks, vs 24 week WDSW
  necropsy body weight: comparable to the 24 week positive WDSW controls
[2]; low dose 5 mg/kg s.c. 1x daily for 8 weeks (weeks 16-24 on WDSW), P=0.12
  liver weight vs WDSW positive control: smaller livers than the WDSW positive control group, however the difference was not statistically significant
[2]; low dose 5 mg/kg vs 24 week WDSW, P=0.10
  AST: statistically significant drop in AST
[2]; low dose 5 mg/kg vs 24 week positive control, P=0.026
  hepatocyte ballooning: statistically less ballooning
[2]; low dose 5 mg/kg vs 24 week positive controls, P=0.057
  fibrosis (NASH CRN): lower than the 24 week positive controls
[2]; low dose 5 mg/kg vs WDSW control, P=0.01
  alkaline phosphatase (ALP): significantly lower
[2]; low dose 5 mg/kg vs positive controls, P=0.032
  steatosis percentage: statistically significantly less steatosis percentage
[2]; low dose 5 mg/kg, 24 week WDSW control 10/10, baseline (16 weeks) 5/10
  mice that developed NASH: 7/10
[2]; low dose 5 mg/kg
  mice progressed to measurable fibrosis by NASH CRN score: 1/10
[2]; low dose 5 mg/kg, P=0.002
  perisinusoidal fibrosis: significantly less perisinusoidal fibrosis
[2]; treated mice vs 24 week positive control, P 0.11 (low dose) and 0.051 (high dose)
  ALT: strong trend towards improved ALT (lower ALT)
[3]; oral
  effective dose abolishing TPA-stimulated epidermal hyperplasia: at least 200 mg/kg
[3]; subcutaneous injection
  lowest effective dose abolishing TPA-stimulated epidermal hyperplasia: 2.5 mg/kg

## CC[C@H]1[C@@H](O)[C@@H]2[C@H](CC[C@]3(C)[C@@H]([C@H](C)CCC(=O)O)CC[C@@H]23)[C@@]2(C)CC[C@@H](O)C[C@@H]12 [obeticholic acid]
NASH patients [4]
  insulin sensitivity: decrease in insulin sensitivity
  plasma LDL and total cholesterol: significant increase

## Vitamin E
[5]
  histologic improvement compared with placebo: significant histologic improvement compared with placebo
